Source: paper PMC10794144, “A novel antibiotic class targeting the lipopolysaccharide transporter” (Nature, 2024)
In brackets after ≈: the same amount, converted by molar mass.

Legend:
[1] = test system: S. aureus ATCC 29213; experiment: organism not typed
Procedure: (§1) MIC determinations were performed using the broth microdilution method and in line with CLSI guidelines M07 and M100 (refs. [37],[38]). Bacterial inocula were prepared by diluting a 0.5 McFarland suspension in CAMHB or lysogeny broth (LB) specifically for A. baylyi isolates. […] MIC values of all of the tested antibiotics were read as the lowest compound concentration inhibiting bacterial growth by naked eye or beyond which the OD600 ceased to decrease.

[2] = target: CYP2C9 (Homo sapiens, UniProt P11712); experiment: CYP inhibition; assay type: in vitro ADME
[3] = test system: P. aeruginosa ATCC 27853; experiment: microbe, parasite or virus in culture; conditions: Pseudomonas aeruginosa, ATCC27853, CAMHB; mode of at least three replicates (RO7036668 one replicate)
Procedure: as §1

[4] = target: CYP3A4 (Homo sapiens, UniProt P08684); experiment: CYP inhibition; assay type: in vitro ADME
[5] = target: T1, CDK2 (Homo sapiens, UniProt P24941); experiment: Off-target screening (CEREP); assay type: biochemical; conditions: 10 µM, duplicates; read-out: percent inhibition
T1 construct: purchased Eurofins CEREP SA
Procedure: (§2) Supplementary Table 1 │ Off-target activity screening f or MCP compou nds […]
(§3) The assays given in the table above were conducted at Eurofins CEREP S A (Celle-Lévescault, France) and were run as single point measurements in duplicates in the presence of 10 µ M of the test compound and reported as percent inhibition of the radioligand signal or control enzymatic activity. n.d., not

[6] = target: T2, Angiotensin converting enzyme (Homo sapiens, UniProt P12821); experiment: Off-target screening (CEREP); assay type: biochemical; conditions: 10 µM, duplicates; read-out: percent inhibition
T2 construct: purchased Eurofins CEREP SA
Procedure: as §2, §3

[7] = test system: HEK293 cells; experiment: Cell-viability assay (CellTiterGlo); assay type: cell-based; conditions: Homo sapiens, 24 h, 37 °C, 3.125–100 μM, n = 2
Procedure: Compounds were prepared in serial dilutions (3.125–100 μM in 1% DMSO) and transferred to 384-well plates together with a positive (Staurosporine) and a negative (no compound) control. In total, 25 μl of HEK293 cells (ATCC; verified by short tandem repeat PCR and mycoplasma negative) (50,000 cells per ml) were added in either low-serum-containing (0.5% fetal bovine serum (FBS)) or high-serum-containing (12.5% FBS, 1% BSA) medium (Dulbecco’s modified Eagle medium (DMEM), glucose, L-glutamine). The plates were incubated for 24 h at 37 °C and a mixture of CellTiterGlo and DMEM was added to the plates. After incubation at room temperature, the luminescence signal was read using a BioTeK reader and a calculated IC50 was derived from the data.

Chain of CYP2C9 (P11712 whole entry): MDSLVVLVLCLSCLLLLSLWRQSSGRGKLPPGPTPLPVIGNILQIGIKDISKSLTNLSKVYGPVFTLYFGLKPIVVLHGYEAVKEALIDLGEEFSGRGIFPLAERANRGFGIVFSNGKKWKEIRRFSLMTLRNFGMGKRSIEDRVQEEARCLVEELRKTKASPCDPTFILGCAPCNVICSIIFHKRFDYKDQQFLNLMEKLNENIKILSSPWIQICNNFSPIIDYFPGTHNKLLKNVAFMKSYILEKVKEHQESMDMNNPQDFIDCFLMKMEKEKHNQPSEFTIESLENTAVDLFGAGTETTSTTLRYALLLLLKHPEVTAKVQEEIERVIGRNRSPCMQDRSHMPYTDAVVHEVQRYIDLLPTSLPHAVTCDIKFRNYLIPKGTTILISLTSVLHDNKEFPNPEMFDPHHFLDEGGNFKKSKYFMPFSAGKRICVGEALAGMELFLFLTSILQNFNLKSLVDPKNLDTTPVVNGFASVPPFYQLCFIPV
T2 sequence (P12821 30-1306): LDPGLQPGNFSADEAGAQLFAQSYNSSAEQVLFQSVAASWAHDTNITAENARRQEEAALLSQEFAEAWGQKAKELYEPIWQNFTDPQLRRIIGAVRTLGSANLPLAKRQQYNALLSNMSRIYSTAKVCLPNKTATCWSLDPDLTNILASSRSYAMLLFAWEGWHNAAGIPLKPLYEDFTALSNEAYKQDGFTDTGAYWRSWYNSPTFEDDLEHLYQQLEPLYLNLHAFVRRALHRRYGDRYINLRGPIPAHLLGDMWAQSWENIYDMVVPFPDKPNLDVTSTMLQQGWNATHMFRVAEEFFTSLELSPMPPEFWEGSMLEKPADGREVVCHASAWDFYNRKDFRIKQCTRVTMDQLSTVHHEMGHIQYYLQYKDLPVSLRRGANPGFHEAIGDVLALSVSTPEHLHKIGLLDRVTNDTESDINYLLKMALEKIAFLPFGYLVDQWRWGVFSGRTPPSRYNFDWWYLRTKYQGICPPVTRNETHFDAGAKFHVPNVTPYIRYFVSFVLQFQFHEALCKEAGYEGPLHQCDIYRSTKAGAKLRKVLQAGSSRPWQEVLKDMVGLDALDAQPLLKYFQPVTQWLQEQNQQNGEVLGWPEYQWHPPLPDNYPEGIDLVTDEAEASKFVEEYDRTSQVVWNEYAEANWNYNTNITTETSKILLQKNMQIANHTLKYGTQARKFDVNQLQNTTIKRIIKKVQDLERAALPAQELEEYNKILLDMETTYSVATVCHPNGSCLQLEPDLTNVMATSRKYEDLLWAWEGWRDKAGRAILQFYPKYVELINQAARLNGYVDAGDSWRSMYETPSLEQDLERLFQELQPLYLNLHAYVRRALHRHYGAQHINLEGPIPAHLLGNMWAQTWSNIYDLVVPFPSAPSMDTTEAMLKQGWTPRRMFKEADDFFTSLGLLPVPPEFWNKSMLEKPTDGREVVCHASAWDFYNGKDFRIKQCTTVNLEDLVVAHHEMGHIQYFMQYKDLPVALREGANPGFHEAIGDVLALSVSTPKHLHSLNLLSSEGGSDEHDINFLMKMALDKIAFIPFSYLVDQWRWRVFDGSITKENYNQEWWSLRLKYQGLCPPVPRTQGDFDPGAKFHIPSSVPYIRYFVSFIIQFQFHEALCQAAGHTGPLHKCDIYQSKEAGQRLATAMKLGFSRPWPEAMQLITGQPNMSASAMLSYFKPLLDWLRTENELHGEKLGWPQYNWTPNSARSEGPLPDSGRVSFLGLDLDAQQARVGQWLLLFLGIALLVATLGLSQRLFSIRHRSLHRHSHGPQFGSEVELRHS
Chain of CYP3A4 (P08684 whole entry): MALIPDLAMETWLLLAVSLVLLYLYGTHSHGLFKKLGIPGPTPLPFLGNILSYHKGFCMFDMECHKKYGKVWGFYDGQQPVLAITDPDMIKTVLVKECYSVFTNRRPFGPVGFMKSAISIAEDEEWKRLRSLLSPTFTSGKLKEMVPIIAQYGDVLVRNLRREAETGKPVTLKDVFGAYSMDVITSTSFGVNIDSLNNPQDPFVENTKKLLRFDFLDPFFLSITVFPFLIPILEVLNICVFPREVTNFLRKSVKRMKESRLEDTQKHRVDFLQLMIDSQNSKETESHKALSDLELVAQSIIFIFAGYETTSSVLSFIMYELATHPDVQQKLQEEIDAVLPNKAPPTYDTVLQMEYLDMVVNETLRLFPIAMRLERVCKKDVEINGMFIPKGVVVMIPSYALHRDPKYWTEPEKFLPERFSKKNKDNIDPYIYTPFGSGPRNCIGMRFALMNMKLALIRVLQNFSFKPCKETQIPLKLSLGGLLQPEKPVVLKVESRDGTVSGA

Question: For `CN1C(=O)[C@H](CCCN)NC(=O)[C@H](CCCN)NCc2ccccc2Sc2ccccc2CNC(=O)[C@@H]1Cc1c[nH]c2ccccc12` [RO7036668], which MIC ([1]; Gram-positive bacteria and yeast) is on record?
Answer: 32 to 64 mg/L (≈ 48.8 to 97.6 µM)

Question: What about the MIC ([1]; Staphylococcus aureus, ATCC29213, CAMHB, mode of at least three replicates (RO7036668 one replicate)) of the same compound?
Answer: 32 mg/L (≈ 48.8 µM)

Question: And the “CYP inh. (2C9)” value [2]?
Answer: > 50 µM

Question: And the MIC [3]?
Answer: > 64 mg/L

Question: And the “CYP inh. (3A4)” value [4]?
Answer: 18 µM

Question: What about the inhibition at 10 µM [5] of the same compound?
Answer: 9%

Question: What about the inhibition at 10 µM [6] of the same compound?
Answer: -7%

Question: What about the IC50 [7] of the same compound?
Answer: > 100 µM
